The subject of one assay is Male DIO mice. The assay can be described thus: In vivo evaluation for glucose disposal and lipidemia in DIO mice (Example 11). To be noted: for change in body weight from baseline: 30 days; for Cholesterol / HDL / LDL / NEFA / Triglycerides: terminal (fed) serum; for Fasting blood glucose levels (time 0 from OGTT): 28 days, 16 hour fast; for glucose AUC (0-120 min): OGTT day 28, glucose 2.0 g/kg PO. On the procedure:
The DIO mice were prepared by feeding male C57BL/6 mice a high fat diet (HFD, Research Diets D12492) from 6-14 weeks of age. DIO mice were housed individually and maintained on the HFD through the duration of study. A twelve-hour light cycle was maintained with room temperature maintained at 22-25° C. All of the mice were acclimated to the facility for 5 days prior to starting the study.
Following 5 days of facility acclimation, DIO mice were randomized into 8 groups of 10 based on body weight and blood glucose for assignment to treatment, as shown in Table 9:
All treatments were administered admixed in HFD (Research Diets, New Brunswick N.J.) and were provided ad libitum for 30 days. Drinking water for group 7 was supplemented with 1, 3 Butanediol at 3% concentration.
Body weight was recorded at baseline and twice weekly thereafter. Feed and water intakes were recorded each Monday, Wednesday, and Friday.
Blood samples (<3 μL) were obtained one hour post dose by tail clip at baseline and weekly thereafter for measurement of fed blood glucose by StatStrip. Additional anti-coagulated blood samples (100 μl, EDTA di-potassium salt) were obtained by tail clip one hour post-dose at baseline, day 14 and day 30. Anti-coagulated samples were quick frozen and stored on dry ice.
Animals were subjected to a 16 hour fast for performance of an oral glucose tolerance test (OGTT) on day 28. Blood samples were obtained via tail clip just prior to (8 am) and 15, 30, 60, 90, and 120 minutes post-glucose load (2.0 g/kg, PO) for assay of whole blood glucose (StatStrip). Feed was returned following last sample.
Animals were terminated on day 30-31 using CO2 inhalation and induction of pneumothorax. Terminal blood samples were obtained by cardiac puncture. Whole blood was processed to serum and analyzed for serum cholesterol, triglycerides, high density lipoprotein (HDL), low density lipoprotein (LDL) and non-esterified fatty acids (NEFA) using AU480 clinical analyzer.
Organ weights (liver, spleen, subcutaneous fat, inguinal fat, abdominal fat, and epididymal fat) were recorded. Sections of each fat were frozen or fixed in 4% paraformaldehyde/PBS, pH 6.9; Fat samples were placed on dry ice. Fixed liver samples (4% paraformaldehyde) were sent to Premier Laboratories for H&E staining and scoring for steatosis, inflammation and fibrosis. Spleen samples were prepared in ice cold 5% bovine serum albumin (BSA) in PBS or 4% paraformaldehyde. Sections of brain, heart, lung, and small and large intestine were fixed in 10% formalin.
All data are represented as group mean±SEM. Data were analyzed using JMP (SAS software). All normalizations were calculated using terminal body weight.
Baseline differences among groups were identified using Tukey-Kramer Hsd<0.05. Treatment effects compared to control were determined using Oneway ANOVA (*, p<0.05) followed by Dunnett's test where appropriate.

In a further assay the test system is C57BL/6 DIO mice. Kind of assay: DIO animal model of NAFLD/NASH in young mice (Example 16). To be noted: ad libitum in HFD; for % Weight change: 12 weeks; for OGTT: Day 82, 2 g/kg glucose PO; for OGTT / % HbA1c: ctrl HFD; for % Difference compared to ctrl: weight change vs HFD ctrl. The assay is classed as in vivo. Also on record: OGTT: unit not given beside the values. The text has this: Species (number, sex, age/weight): C57BL/6 DIO mice (120+10 spares, male, ˜18 weeks of age) from Jackson Laboratories, Stock #380050. Note: 18 week old DIO mice sent sent with a minimum body weight of 39 grams. Spare animals may be used to replace study animals, as required, euthanized after completion of dose administration or transferred to Testing Facility Docket 07-12.
Cage Side Observations (Animal Health Checks): Cage side animal's health checks will be performed at least once daily to check for general health, mortality and moribundity. Clinical Observations: Clinical observations will be performed per exception. Body Weights: Body weights for all animals will be recorded prior to Day 1 and at least twice weekly thereafter, including prior to necropsy ([…]).
Dose Administration: Dosing for Groups 3-8 will be provided ad libitum in the diet. Dosing for Groups 9 (Saline) and 10 (Semaglutide at 123.4 μg/kg) in a 5 mL/kg volume, will begin on Day 1, and be performed 3 times weekly for 12 weeks by SC administration. Residual Test Article: All residual high fat diets will be frozen at nominally −20° C., and at the end of the study, several pellets of the diets for groups 2-9 (in 50-ml conical tubes) will be shipped to Sponsor, and the rest will be discarded. Residual control diets (group 1) will be stored ambient, and at the end of the study, several pellets in a 50 mL conical tube will be shipped to Sponsor and the rest is discarded. Residual test material for Group 10 will be stored at nominally −70° C., and at the end of the study, an aliquot of test material will be shipped to Sponsor, and the rest will be discarded.
Oral Glucose Tolerance Test (oGTT) On Day 82 (+/−2 days) an oGTT will be performed. Following an approximate 4 hour fast, 2 g/kg glucose (50% Dextrose diluted in sterile water for injection to a concentration of 0.4 g/mL) will be administered at 5 mL/kg via oral gavage (PO). Blood will be collected pre-glucose challenge (t=0) and at t=15, 30, 60, 90, and 120 minutes following the glucose challenge. Whole blood glucose levels will be evaluated at all time points using a handheld glucometer and will be reported in the Data Submission. This will be scheduled on a Tuesday or Thursday to avoid Group 9/10 dosing days.
Oral Glucose Tolerance Test (oGTT) On Day 82 (+/−2 days) an oGTT will be performed. Following an approximate 4 hour fast, 2 g/kg glucose (50% Dextrose diluted in sterile water for injection to a concentration of 0.4 g/mL) will be administered at 5 mL/kg via oral gavage (PO). Blood will be collected pre-glucose challenge (t=0) and at t=15, 30, 60, 90, and 120 minutes following the glucose challenge. Whole blood glucose levels will be evaluated at all time points using a handheld glucometer and will be reported in the Data Submission.

The source of these data is US10953027B2, “Active agents and methods of their use for the treatment of metabolic disorders and nonalcoholic fatty liver disease” (Flagship Pioneering Innovations V, Inc., priority 2018, dated 2021).

Structures are written as SMILES.

Turning to `CC(=O)Oc1cc(OC(C)=O)c2c(c1)O[C@H](c1cc(OC(C)=O)c(OC(C)=O)c(OC(C)=O)c1)[C@H](OC(=O)c1cc(OC(C)=O)c(OC(C)=O)c(OC(C)=O)c1)C2` [Compound 4, [(2R,3R)-5,7-diacetoxy-2-(3,4,5-triacetoxyphenyl)chroman-3-yl] 3,4,5-triacetoxybenzoate], in the assay on Male DIO mice (0.6% in HFD), the “Abdominal fat (% BW)” value turned out to be 2.1 ± 0.2 % BW, the “Blood glucose (fed) change compared to baseline” value (“Blood glucose (fed) change” below) is reported as −15.6±3.1%, the “Epididymal fat (% BW)” value is on record as 4.7 ± 0.2 % BW and the “Inguinal fat (% BW)” value is 0.99 ± 0.17 % BW. Also, in the assay with Male DIO mice (0.6% in HFD), the “Subcutaneous fat (% BW)” value is recorded as 4.9 ± 0.4 % BW, the “change in body weight from baseline” value is 13.5±2.0%, the Cholesterol stood at 193.9 ± 11.0 mg/dL and the HDL was determined as 94.4 ± 4.0 mg/dL. Moreover, in the assay with Male DIO mice (0.6% in HFD), the LDL is reported as 9.2 ± 0.9 mg/dL, the NEFA is recorded as 1.2 ± 0.04 mEq/L and the Triglycerides came to 97.7 ± 10.1 mg/dL. Moreover, in the assay with Male DIO mice (2% in HFD), the “Abdominal fat (% BW)” value is 2.4 ± 0.1 % BW, the “Blood glucose (fed) change” value is −9.0±3.9%, the “Epididymal fat (% BW)” value was determined as 4.5 ± 0.2 % BW and the “Inguinal fat (% BW)” value came to 0.93 ± 0.08 % BW. Further, in the assay with Male DIO mice (2% in HFD), the “Subcutaneous fat (% BW)” value is 5.5 ± 0.5 % BW, the “change in body weight from baseline” value stood at 16.4±1.1%, the Cholesterol was determined as 208.2 ± 7.2 mg/dL and the HDL was determined as 99.0 ± 3.6 mg/dL. In the assay with Male DIO mice (2% in HFD), the LDL is listed as 10.7 ± 0.9 mg/dL, the NEFA is listed as 1.2 ± 0.06 mEq/L and the Triglycerides is 91.1 ± 8.4 mg/dL. In addition, in the assay with Male DIO mice (6% in HFD), the “Abdominal fat (% BW)” value is on record as 2.2 ± 0.1 % BW, the “Blood glucose (fed) change” value is −4.3±3.0%, the “Epididymal fat (% BW)” value is recorded as 4.7 ± 0.3 % BW and the “Inguinal fat (% BW)” value was determined as 0.95 ± 0.08 % BW. Further, in the assay on Male DIO mice (6% in HFD), the “Subcutaneous fat (% BW)” value is 5.0 ± 0.6 % BW, the “change in body weight from baseline” value is reported as 15.7±1.0%, the Cholesterol worked out at 200.4 ± 14.2 mg/dL and the HDL came to 91.5 ± 5.1 mg/dL. Moreover, in the assay on Male DIO mice (6% in HFD), the LDL is 12.3 ± 0.9 mg/dL, the NEFA stood at 1.1 ± 0.04 mEq/L and the Triglycerides was 89.9 ± 5.7 mg/dL. In the assay on C57BL/6 DIO mice, the “% Weight change” value stood at 19%, the OGTT is given as 25072, the “% HbA1c” value is recorded as 4.89% and the “% Difference compared to ctrl” value is recorded as −4%.

For the compound `CC(=O)Oc1cc(OC(C)=O)c2c(=O)c(OC(C)=O)c(-c3ccc(OC(C)=O)c(OC(C)=O)c3)oc2c1` [Compound 14, [2-acetoxy-4-(3,5,7-triacetoxy-4-oxo-chromen-2-yl)phenyl] acetate], in the assay with Male DIO mice (6% in HFD), the “Abdominal fat (% BW)” value is “*0.98 ± 0.2 % BW”, the “Blood glucose (fed) change” value was −23.1±4.9%, the “Epididymal fat (% BW)” value was “*2.6 ± 0.3 % BW” and the “Inguinal fat (% BW)” value was “*0.40 ± 0.06 % BW”. In addition, in the assay on Male DIO mice (6% in HFD), the “Subcutaneous fat (% BW)” value is reported as “*2.2 ± 0.4 % BW”, the “Fasting blood glucose levels (time 0 from OGTT)” value amounted to 63.1 ± 1.9 mg/dL, the “change in body weight from baseline” value is −11.9±1.3% and the “glucose AUC (0-120 min)” value was 25720.5 ± 895.5 mg/dL/min. In the assay with Male DIO mice (6% in HFD), the Cholesterol result was “*121.5 ± 9.4 mg/dL”, the HDL came to 79.4 ± 4.0 mg/dL, the LDL result was “*4.9 ± 0.4 mg/dL” and the NEFA result is “*0.69 ± 0.03 mEq/L”. Further, in the assay on Male DIO mice (6% in HFD), the Triglycerides result is “*64.0 ± 2.8 mg/dL”. Moreover, in the assay with C57BL/6 DIO mice, the “% Weight change” value was found to be 16%, the OGTT was 32591, the “% HbA1c” value is listed as 6.93% and the “% Difference compared to ctrl” value is on record as −7%.

For `CC(=O)O[C@H]1OC[C@H](OC(C)=O)[C@H](OC(C)=O)[C@H]1OC(C)=O` [Compound 53, (2R,3R,4S,5S)-tetrahydro-2H-pyran-2,3,4,5-tetrayl Tetraacetate], in the assay with Male DIO mice (5% in HFD), the “Abdominal fat (% BW)” value was “*1.9 ± 0.2 % BW”, the “Blood glucose (fed) change” value is −12.5±2.2%, the “Epididymal fat (% BW)” value came to 4.1 ± 0.4 % BW and the “Inguinal fat (% BW)” value came out at 0.84 ± 0.11 % BW. In the assay on Male DIO mice (5% in HFD), the “Subcutaneous fat (% BW)” value came out at 4.0 ± 0.6 % BW, the “Fasting blood glucose levels (time 0 from OGTT)” value worked out at 90.8 ± 5.7 mg/dL, the “change in body weight from baseline” value was −1.8±3.2% and the “glucose AUC (0-120 min)” value was found to be 30151.5 ± 1680 mg/dL/min. For the same compound, in the assay with Male DIO mice (5% in HFD), the Cholesterol is on record as 163.3 ± 10.3 mg/dL, the HDL is on record as 88.9 ± 2.7 mg/dL, the LDL result is on record as “*6.5 ± 0.7 mg/dL” and the NEFA result is given as “*0.98 ± 0.05 mEq/L”. The Triglycerides in the assay with Male DIO mice (5% in HFD) was 84.8 ± 5.5 mg/dL. Moreover, in the assay on C57BL/6 DIO mice, the “% Weight change” value turned out to be 10%, the OGTT is recorded as 25779, the “% HbA1c” value stood at 4.35% and the “% Difference compared to ctrl” value is reported as −13%.
